Assay results from PubChem BioAssay (NCI).
Several values for one entry are separate records, joined by “and”; a condition that tells them apart may be missing. Identical values can stand only once.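 Dose response: 5 concentrations. Exposure: 48 h. Format: 96-well plates. Endpoint: linear interpolation; highest concentration if not reached. GI50 = concentration required for 50% inhibition of growth. TGI is the concentration that stops growth completely.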

Tested on: HOP-92 NSCLC
Assay: NCI anticancer screen, dose series, 48 h

Structure (SMILES) | GI50 [µM] | TGI [µM]
Cn1c(Nc2ccc(C(F)(F)F)cc2)nc2cc(Oc3ccnc(-c4ncc(C(F)(F)F)[nH]4)c3)ccc21 | 0.408 | 7.26
COc1ccc(-c2nsc3c2NC(=O)CC3c2cccc(OC)c2)cc1 (stereo not drawn) | 2.31 | 43
C[C@@]12CCC[C@@](C)(C(=O)O)C1CC[C@]13CC(=O)[C@](CO)(C1)[C@@H](O)CC32 (stereo partly drawn) | > 100 | > 100
CN(C)C/C=C/C(=O)Nc1cc2c(Nc3ccc(F)c(Cl)c3)ncnc2cc1O[C@H]1CCOC1 | 0.227 | 4.44
COc1cc(/C=C/C(=O)c2cccc(-n3cc(-c4ccc(Cl)cc4)[nH]c3=O)c2)ccc1O | 1.52 | 7.05
CCN(Cc1ccc(F)cc1)c1ccc(CO)c(Br)c1 | 0.173 | 6.23
Cc1ccc2c(C3C(C#N)=C(N)Oc4cc5ccccc5cc43)cc(=O)oc2c1 (stereo not drawn) | 19.7 | 84
CCCCCCCN=C(N)c1ccc(N2CCN(c3ccc(C(N)=NCCCCCCC)cc3)CC2)cc1 | 0.463 | > 100
CC1(Br)Cc2ccccc2C1=O (stereo not drawn) | – | 16.5
CN(C)C(=S)Sc1ccc([N+](=O)[O-])cc1[N+](=O)[O-] | 2.95 | 11.2
C[C@H]1CN[C@@H]2[C@@H](C)[C@H]3[C@@H](C[C@H]4[C@@H]5CC[C@H]6C[C@@H](N)CC[C@]6(C)[C@H]5CC[C@]34C)O[C@@]2(O)C1 | – | 11.4
Cn1c(=O)c(Oc2ccc(F)cc2)cc2cnc(NC3CCOCC3)nc21 | 4.72 | > 25
CC1(C)N=C(N)N=C(N)N1c1ccc(CCCCc2ccc(Cl)c(S(=O)(=O)F)c2)c(Cl)c1 | 1.08 | 15.2
CCc1c(Cl)c(C)cc(O)c1Cl | – | 92.3
CC(C)OC(=O)[C@H](C)NP(=O)(OC[C@H]1O[C@@H](n2ccc(=O)[nH]c2=O)[C@](C)(F)[C@@H]1O)Oc1ccccc1 (stereo partly drawn) | > 100 | > 100
BrCc1cccc(C[P+](c2ccccc2)(c2ccccc2)c2ccccc2)c1 | 2.84 | 52.4
O=S(=O)(Nc1ccc(Cl)cc1Cl)c1ccc(-c2cnc(C3CC3)o2)cc1 | 0.491 | 15.3
CCc1ccc(/C=C/c2ccc(O)c3ncccc23)[n+](C)c1 | 0.0293 | 3.54
O=C(/C=C/C=C/c1ccccc1)c1ccccc1 | – | 39.1
CS(=O)(=O)Nc1cc(-c2ccc3ncnc(Nc4c(Cl)ccc5c4OCO5)c3c2)cnc1Cl | 0.0597 | 0.639
COc1ccccc1Nc1ncc(-c2ccccc2)o1 | > 25 | > 25
CN(C)c1ccc(N=Nc2ccccn2)c(O)c1 | 0.666 | 50.2
CN1CC[C@@H](c2c(O)cc(O)c3c(=O)cc(-c4ccc(C(F)(F)F)cc4Cl)oc23)[C@@H]1CO | 13 | 40.3

Tested on: HCC-2998 colon
Assay: NCI anticancer screen, dose series, 48 h

Structure (SMILES) | GI50 | TGI
Cn1c(Nc2ccc(C(F)(F)F)cc2)nc2cc(Oc3ccnc(-c4ncc(C(F)(F)F)[nH]4)c3)ccc21 | 1.25 µM | 13.1 µM
COc1ccc(-c2nsc3c2NC(=O)CC3c2cccc(OC)c2)cc1 (stereo not drawn) | 2.13 µM | > 100 µM
C[C@@]12CCC[C@@](C)(C(=O)O)C1CC[C@]13CC(=O)[C@](CO)(C1)[C@@H](O)CC32 (stereo partly drawn) | > 100 µM | > 100 µM
CN(C)C/C=C/C(=O)Nc1cc2c(Nc3ccc(F)c(Cl)c3)ncnc2cc1O[C@H]1CCOC1 | 1.14 µM and 1.58 µM | 3.14 µM and > 9.22 µM
COc1cc(/C=C/C(=O)c2cccc(-n3cc(-c4ccc(Cl)cc4)[nH]c3=O)c2)ccc1O | 2.35 µM | 5.5 µM
CCN(Cc1ccc(F)cc1)c1ccc(CO)c(Br)c1 | 5.29 µM | 30.8 µM
Cc1ccc2c(C3C(C#N)=C(N)Oc4cc5ccccc5cc43)cc(=O)oc2c1 (stereo not drawn) | 3.91 µM | 58.6 µM
CCCCCCCN=C(N)c1ccc(N2CCN(c3ccc(C(N)=NCCCCCCC)cc3)CC2)cc1 | 0.0231 µM | 0.163 µM
CC1(Br)Cc2ccccc2C1=O (stereo not drawn) | – | > 100 µM
CN(C)C(=S)Sc1ccc([N+](=O)[O-])cc1[N+](=O)[O-] | 6.9 µM | 17.4 µM
C[C@H]1CN[C@@H]2[C@@H](C)[C@H]3[C@@H](C[C@H]4[C@@H]5CC[C@H]6C[C@@H](N)CC[C@]6(C)[C@H]5CC[C@]34C)O[C@@]2(O)C1 | – | 6.23 µM
Cn1c(=O)c(Oc2ccc(F)cc2)cc2cnc(NC3CCOCC3)nc21 | > 25 µM | > 25 µM
CC1(C)N=C(N)N=C(N)N1c1ccc(CCCCc2ccc(Cl)c(S(=O)(=O)F)c2)c(Cl)c1 | 0.922 µM | 15.1 µM
CCc1c(Cl)c(C)cc(O)c1Cl | – | 26.7 µM
CC(C)OC(=O)[C@H](C)NP(=O)(OC[C@H]1O[C@@H](n2ccc(=O)[nH]c2=O)[C@](C)(F)[C@@H]1O)Oc1ccccc1 (stereo partly drawn) | > 100 µM | > 100 µM
BrCc1cccc(C[P+](c2ccccc2)(c2ccccc2)c2ccccc2)c1 | 21.8 µM | > 100 µM
O=S(=O)(Nc1ccc(Cl)cc1Cl)c1ccc(-c2cnc(C3CC3)o2)cc1 | 1.6 µM | 16.5 µM
CCc1ccc(/C=C/c2ccc(O)c3ncccc23)[n+](C)c1 | > 30.5 µM | > 100 µM
O=C(/C=C/C=C/c1ccccc1)c1ccccc1 | – | 31.7 µM
CS(=O)(=O)Nc1cc(-c2ccc3ncnc(Nc4c(Cl)ccc5c4OCO5)c3c2)cnc1Cl | 0.262 µM | 1.51 µM
COc1ccccc1Nc1ncc(-c2ccccc2)o1 | > 25 µM | > 25 µM
CN(C)c1ccc(N=Nc2ccccn2)c(O)c1 | 0.376 µM | > 100 µM
CN1CC[C@@H](c2c(O)cc(O)c3c(=O)cc(-c4ccc(C(F)(F)F)cc4Cl)oc23)[C@@H]1CO | 13.7 µM | 33.1 µM

Tested on: NCI-H23 lung
Assay: NCI anticancer screen, dose series, 48 h

Structure (SMILES) | GI50 | TGI
Cn1c(Nc2ccc(C(F)(F)F)cc2)nc2cc(Oc3ccnc(-c4ncc(C(F)(F)F)[nH]4)c3)ccc21 | 0.31 µM | 7.8 µM
COc1ccc(-c2nsc3c2NC(=O)CC3c2cccc(OC)c2)cc1 (stereo not drawn) | 2.59 µM | > 100 µM
C[C@@]12CCC[C@@](C)(C(=O)O)C1CC[C@]13CC(=O)[C@](CO)(C1)[C@@H](O)CC32 (stereo partly drawn) | > 100 µM | > 100 µM
CN(C)C/C=C/C(=O)Nc1cc2c(Nc3ccc(F)c(Cl)c3)ncnc2cc1O[C@H]1CCOC1 | 1.96 µM and 2.49 µM | 8.66 µM and > 10 µM
COc1cc(/C=C/C(=O)c2cccc(-n3cc(-c4ccc(Cl)cc4)[nH]c3=O)c2)ccc1O | 4.43 µM | 24.4 µM
CCN(Cc1ccc(F)cc1)c1ccc(CO)c(Br)c1 | 15.6 µM | > 56.1 µM
Cc1ccc2c(C3C(C#N)=C(N)Oc4cc5ccccc5cc43)cc(=O)oc2c1 (stereo not drawn) | 6.06 µM | > 100 µM
CC1(Br)Cc2ccccc2C1=O (stereo not drawn) | 1.88 µM | 5.38 µM
CN(C)C(=S)Sc1ccc([N+](=O)[O-])cc1[N+](=O)[O-] | 2.93 µM | 11.6 µM
C[C@H]1CN[C@@H]2[C@@H](C)[C@H]3[C@@H](C[C@H]4[C@@H]5CC[C@H]6C[C@@H](N)CC[C@]6(C)[C@H]5CC[C@]34C)O[C@@]2(O)C1 | – | 26.9 µM
Cn1c(=O)c(Oc2ccc(F)cc2)cc2cnc(NC3CCOCC3)nc21 | > 25 µM | > 25 µM
CC1(C)N=C(N)N=C(N)N1c1ccc(CCCCc2ccc(Cl)c(S(=O)(=O)F)c2)c(Cl)c1 | 0.843 µM | 19 µM
CCc1c(Cl)c(C)cc(O)c1Cl | – | > 100 µM
CC(C)OC(=O)[C@H](C)NP(=O)(OC[C@H]1O[C@@H](n2ccc(=O)[nH]c2=O)[C@](C)(F)[C@@H]1O)Oc1ccccc1 (stereo partly drawn) | > 100 µM | > 100 µM
BrCc1cccc(C[P+](c2ccccc2)(c2ccccc2)c2ccccc2)c1 | 36.2 µM | > 100 µM
O=S(=O)(Nc1ccc(Cl)cc1Cl)c1ccc(-c2cnc(C3CC3)o2)cc1 | 1.4 µM | 55.5 µM
CCc1ccc(/C=C/c2ccc(O)c3ncccc23)[n+](C)c1 | 4.2 µM | > 100 µM
CS(=O)(=O)Nc1cc(-c2ccc3ncnc(Nc4c(Cl)ccc5c4OCO5)c3c2)cnc1Cl | 0.25 µM | 4 µM
COc1ccccc1Nc1ncc(-c2ccccc2)o1 | > 25 µM | > 25 µM
CN(C)c1ccc(N=Nc2ccccn2)c(O)c1 | 0.564 µM | > 100 µM
CN1CC[C@@H](c2c(O)cc(O)c3c(=O)cc(-c4ccc(C(F)(F)F)cc4Cl)oc23)[C@@H]1CO | 15.2 µM | 37.3 µM

Tested on: SK-MEL-2 melanoma
Assay: NCI anticancer screen, dose series, 48 h

Structure (SMILES) | GI50 | TGI
Cn1c(Nc2ccc(C(F)(F)F)cc2)nc2cc(Oc3ccnc(-c4ncc(C(F)(F)F)[nH]4)c3)ccc21 | 0.0387 µM | 0.728 µM
COc1ccc(-c2nsc3c2NC(=O)CC3c2cccc(OC)c2)cc1 (stereo not drawn) | 3.81 µM | 64.1 µM
C[C@@]12CCC[C@@](C)(C(=O)O)C1CC[C@]13CC(=O)[C@](CO)(C1)[C@@H](O)CC32 (stereo partly drawn) | > 100 µM | > 100 µM
CN(C)C/C=C/C(=O)Nc1cc2c(Nc3ccc(F)c(Cl)c3)ncnc2cc1O[C@H]1CCOC1 | 1.38 µM and 1.51 µM | 2.93 µM and 4.13 µM
COc1cc(/C=C/C(=O)c2cccc(-n3cc(-c4ccc(Cl)cc4)[nH]c3=O)c2)ccc1O | 3.61 µM | 14.4 µM
CCN(Cc1ccc(F)cc1)c1ccc(CO)c(Br)c1 | 0.96 µM | 12.6 µM
Cc1ccc2c(C3C(C#N)=C(N)Oc4cc5ccccc5cc43)cc(=O)oc2c1 (stereo not drawn) | 11.7 µM | > 100 µM
CCCCCCCN=C(N)c1ccc(N2CCN(c3ccc(C(N)=NCCCCCCC)cc3)CC2)cc1 | 1.99 µM | > 100 µM
CC1(Br)Cc2ccccc2C1=O (stereo not drawn) | – | 24.2 µM
CN(C)C(=S)Sc1ccc([N+](=O)[O-])cc1[N+](=O)[O-] | 4.21 µM | 9.86 µM
C[C@H]1CN[C@@H]2[C@@H](C)[C@H]3[C@@H](C[C@H]4[C@@H]5CC[C@H]6C[C@@H](N)CC[C@]6(C)[C@H]5CC[C@]34C)O[C@@]2(O)C1 | – | 12.2 µM
Cn1c(=O)c(Oc2ccc(F)cc2)cc2cnc(NC3CCOCC3)nc21 | > 25 µM | > 25 µM
CC1(C)N=C(N)N=C(N)N1c1ccc(CCCCc2ccc(Cl)c(S(=O)(=O)F)c2)c(Cl)c1 | 2.45 µM | > 33.6 µM
CCc1c(Cl)c(C)cc(O)c1Cl | – | 68.3 µM
CC(C)OC(=O)[C@H](C)NP(=O)(OC[C@H]1O[C@@H](n2ccc(=O)[nH]c2=O)[C@](C)(F)[C@@H]1O)Oc1ccccc1 (stereo partly drawn) | > 100 µM | > 100 µM
BrCc1cccc(C[P+](c2ccccc2)(c2ccccc2)c2ccccc2)c1 | 27.9 µM | > 100 µM
O=S(=O)(Nc1ccc(Cl)cc1Cl)c1ccc(-c2cnc(C3CC3)o2)cc1 | 3.03 µM | 42.2 µM
CCc1ccc(/C=C/c2ccc(O)c3ncccc23)[n+](C)c1 | > 71.7 µM | > 100 µM
O=C(/C=C/C=C/c1ccccc1)c1ccccc1 | – | 45.5 µM
CS(=O)(=O)Nc1cc(-c2ccc3ncnc(Nc4c(Cl)ccc5c4OCO5)c3c2)cnc1Cl | 0.232 µM | 1.04 µM
COc1ccccc1Nc1ncc(-c2ccccc2)o1 | > 25 µM | > 25 µM
CN(C)c1ccc(N=Nc2ccccn2)c(O)c1 | 2.79 µM | > 100 µM
CN1CC[C@@H](c2c(O)cc(O)c3c(=O)cc(-c4ccc(C(F)(F)F)cc4Cl)oc23)[C@@H]1CO | 18.1 µM | 41 µM

Tested on: SW-620 colon
Assay: NCI anticancer screen, dose series, 48 h

Structure (SMILES) | GI50 [µM] | TGI [µM]
Cn1c(Nc2ccc(C(F)(F)F)cc2)nc2cc(Oc3ccnc(-c4ncc(C(F)(F)F)[nH]4)c3)ccc21 | 0.578 | 12.7
